PubChem BioAssay AID328 (DTP/NCI, 2004)
Where “and” joins values, the source holds several entries; their conditions need not be identical. Equal values may be shown once. Toxic doses and inconclusive results are not listed. Rule for the calls: active = survival T/C of 150% or more; inactive = T/C below 125% in these data.

Test system: BDF1 mice, P388 leukemia ip, median survival T/C
Experiment: NCI In Vivo Anticancer Drug Screen. Data for tumor model P388 Leukemia (intraperitoneal) in B6D2F1 (BDF1) mice
Settings: endpoint: median survival time, higher = longer survival
In short: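 Each value expresses how treatment altered survival: treated-mouse outcome over vehicle-mouse outcome, both groups bearing the transplanted tumour.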

[1] = dose: 100.0 mg/kg/injection, schedule: Q01DX009 (ip), vehicle: Klucel (hydroxypropylcellulose) (HPC)
[2] = dose: 200.0 mg/kg/injection, schedule: Q01DX009 (ip), vehicle: Klucel (hydroxypropylcellulose) (HPC)
[3] = dose: 400.0 mg/kg/injection, schedule: Q01DX009 (ip), vehicle: Klucel (hydroxypropylcellulose) (HPC)
[4] = dose: 12.5 mg/kg/injection, schedule: Q01DX009 (ip), vehicle: saline with Tween-80
[5] = dose: 25.0 mg/kg/injection, schedule: Q01DX009 (ip), vehicle: saline with Tween-80
[6] = dose: 50.0 mg/kg/injection, schedule: Q01DX009 (ip), vehicle: Klucel (hydroxypropylcellulose) (HPC)
[7] = dose: 50.0 mg/kg/injection, schedule: Q01DX009 (ip), vehicle: saline with Tween-80
[8] = dose: 200.0 mg/kg/injection, schedule: Q01DX009 (ip), vehicle: saline with Tween-80
[9] = dose: 100.0 mg/kg/injection, schedule: Q01DX009 (ip), vehicle: saline with Tween-80
[10] = dose: 100.0 mg/kg/injection, schedule: Q04DX003 (ip), vehicle: saline with Tween-80
[11] = dose: 200.0 mg/kg/injection, schedule: Q04DX003 (ip), vehicle: saline with Tween-80

Measured: T/C

NC=NC(CCC(=O)O)C(=O)O (stereo unspecified)
inactive: dose: 12.5 mg/kg/injection, schedule: Q01DX005 (ip), vehicle: saline 90 % of control | dose: 25.0 mg/kg/injection, schedule: Q01DX005 (ip), vehicle: saline 96 % of control | dose: 50.0 mg/kg/injection, schedule: Q01DX005 (ip), vehicle: saline 91 % of control

COc1ccc(C=O)c(O)c1
inactive: [1] 90 % of control | dose: 100.0 mg/kg/injection, schedule: Q04DX003 (ip), vehicle: Klucel (hydroxypropylcellulose) (HPC) 92 % of control | [2] 104 % of control | [3] 90 % of control | dose: 400.0 mg/kg/injection, schedule: Q04DX003 (ip), vehicle: Klucel (hydroxypropylcellulose) (HPC) 96 % of control

CCN(CC)CCCC(C)Nc1ncnc2oc(C)c(C)c12 (stereo unspecified)
inactive: dose: 6.25 mg/kg/injection, schedule: Q01DX009 (ip), vehicle: saline with Tween-80 95 % of control | [4] 100 % of control | [5] 100 % of control

O=C(O)CCCOc1cc(Cl)c(Cl)cc1Cl
inactive: dose: 50.0 mg/kg/injection, schedule: Q01DX009 (ip), vehicle: gum acacia 107 % of control | dose: 50.0 mg/kg/injection, schedule: Q04DX003 (ip), vehicle: gum acacia 100 % of control | dose: 100.0 mg/kg/injection, schedule: Q01DX009 (ip), vehicle: gum acacia 107 % of control | dose: 100.0 mg/kg/injection, schedule: Q04DX003 (ip), vehicle: gum acacia 104 % of control | dose: 200.0 mg/kg/injection, schedule: Q01DX009 (ip), vehicle: gum acacia 107 % of control | dose: 200.0 mg/kg/injection, schedule: Q04DX003 (ip), vehicle: gum acacia 122 % of control

[O-][n+]1c(CN2CCCCC2)nc2cccc3c2c1-c1ccccc1-3
inactive: dose: 12.5 mg/kg/injection, schedule: Q03HX008 (ip), vehicle: saline 92 % of control | dose: 12.5 mg/kg/injection, schedule: Q03HX016 (ip), vehicle: saline 100 % of control | dose: 12.5 mg/kg/injection, schedule: Q03HX024 (ip), vehicle: saline 96 % of control | [5] 105 % of control | dose: 25.0 mg/kg/injection, schedule: Q03HX008 (ip), vehicle: saline 95 % of control | dose: 25.0 mg/kg/injection, schedule: Q03HX016 (ip), vehicle: saline 99 % of control | dose: 25.0 mg/kg/injection, schedule: Q03HX024 (ip), vehicle: saline 93 % of control | [6] 116 % of control | [7] 108 % of control and 116 % of control | dose: 50.0 mg/kg/injection, schedule: Q03HX008 (ip), vehicle: saline 95 % of control | dose: 50.0 mg/kg/injection, schedule: Q03HX016 (ip), vehicle: saline 94 % of control | dose: 50.0 mg/kg/injection, schedule: Q03HX024 (ip), vehicle: saline 110 % of control | dose: 50.0 mg/kg/injection, schedule: Q08HX027 (ip), vehicle: saline 113 % of control | [1] 100 % of control | dose: 100.0 mg/kg/injection, schedule: Q03HX008 (ip), vehicle: saline 92 % of control | dose: 100.0 mg/kg/injection, schedule: Q03HX016 (ip), vehicle: saline 90 % of control | dose: 100.0 mg/kg/injection, schedule: Q03HX024 (ip), vehicle: saline 115 % of control | dose: 100.0 mg/kg/injection, schedule: Q08HX027 (ip), vehicle: saline 119 % of control | dose: 150.0 mg/kg/injection, schedule: Q01DX009 (oral), vehicle: saline 91 % of control | dose: 300.0 mg/kg/injection, schedule: Q01DX009 (oral), vehicle: saline 95 % of control | dose: 400.0 mg/kg/injection, schedule: Q01DX009 (oral), vehicle: saline 98 % of control | dose: 600.0 mg/kg/injection, schedule: Q01DX009 (oral), vehicle: saline 103 % of control
active: [8] 158 % of control | dose: 200.0 mg/kg/injection, schedule: Q01DX009 (ip), vehicle: saline 222 % of control | [3] 151 % of control

Oc1ccccc1/C=N\c1nccs1
inactive: dose: 25.0 mg/kg/injection, schedule: Q01DX009 (ip), vehicle: Klucel (hydroxypropylcellulose) (HPC) 111 % of control | [6] 96 % of control and 109 % of control | [1] 96 % of control and 118 % of control | [2] 122 % of control and 123 % of control

O=C(NC1CCCCC1)N(C(=O)C(F)(F)F)C1CCCCC1
inactive: [7] 97 % of control | [9] 93 % of control | [8] 93 % of control

O=S(=O)(Nc1cc(S(=O)(=O)c2ccccc2)c(O)c2ccccc12)c1ccccc1
inactive: dose: 75.0 mg/kg/injection, schedule: Q01DX001 (ip), vehicle: saline with Tween-80 90 % of control | dose: 150.0 mg/kg/injection, schedule: Q01DX001 (ip), vehicle: saline with Tween-80 90 % of control | dose: 300.0 mg/kg/injection, schedule: Q01DX001 (ip), vehicle: saline with Tween-80 100 % of control

COc1cc(C=Nc2cccc(F)c2)ccc1N(CCCl)CCCl
active: dose: 1.25 mg/kg/injection, schedule: Q01DX009 (ip), vehicle: other 180 % of control | dose: 2.5 mg/kg/injection, schedule: Q01DX009 (ip), vehicle: other 195 % of control | dose: 3.13 mg/kg/injection, schedule: Q01DX009 (ip), vehicle: other 168 % of control | dose: 5.0 mg/kg/injection, schedule: Q01DX009 (ip), vehicle: other 280 % of control | dose: 6.25 mg/kg/injection, schedule: Q01DX009 (ip), vehicle: other 181 % of control | dose: 100.0 mg/kg/injection, schedule: Q04DX003 (ip), vehicle: saline sonified 195 % of control
inactive: dose: 12.5 mg/kg/injection, schedule: Q01DX009 (ip), vehicle: other 95 % of control | dose: 25.0 mg/kg/injection, schedule: Q04DX003 (ip), vehicle: saline sonified 95 % of control | dose: 50.0 mg/kg/injection, schedule: Q04DX003 (ip), vehicle: saline sonified 100 % of control

COC(=O)c1ccccc1C1(c2ccccc2C(=O)OC)OC(=O)c2ccccc21
inactive: [1] 100 % of control | [2] 100 % of control | [3] 100 % of control

O=[N+]([O-])c1ccc2c(c1)c(-c1cc(Cl)cc(Cl)c1)nc1ccccc12
inactive: [5] 108 % of control | [7] 97 % of control | [9] 101 % of control | [10] 99 % of control | [8] 90 % of control | [11] 88 % of control | dose: 400.0 mg/kg/injection, schedule: Q01DX009 (ip), vehicle: saline with Tween-80 99 % of control | dose: 400.0 mg/kg/injection, schedule: Q04DX003 (ip), vehicle: saline with Tween-80 107 % of control

OC(CC(O)(C(F)(F)F)C(F)(F)F)c1cccc(C(F)(F)F)c1 (stereo unspecified)
inactive: dose: 100.0 mg/kg/injection, schedule: Q04DX003 (ip), vehicle: other 100 % of control | dose: 200.0 mg/kg/injection, schedule: Q04DX003 (ip), vehicle: other 104 % of control | dose: 400.0 mg/kg/injection, schedule: Q04DX003 (ip), vehicle: other 95 % of control

CCOC1=NCCCCCCC1
inactive: [7] 98 % of control | [9] 97 % of control | [8] 99 % of control

CCCCCCCCCCCCCCCCCOc1ccc2ccccc2c1
inactive: dose: 25.0 mg/kg/injection, schedule: Q01DX001 (ip), vehicle: saline sonified 100 % of control | dose: 50.0 mg/kg/injection, schedule: Q01DX001 (ip), vehicle: saline sonified 100 % of control | dose: 100.0 mg/kg/injection, schedule: Q01DX001 (ip), vehicle: saline sonified 90 % of control

CN=S(=O)(OC/C=C/COS(=O)(=NC)c1ccc(C)cc1)c1ccc(C)cc1 (stereo unspecified)
inactive: [4] 95 % of control | [5] 110 % of control | dose: 50.0 mg/kg/injection, schedule: Q01DX009 (ip), vehicle: saline + alcohol 121 % of control | [9] 100 % of control

O=C(CC(Cl)(C(F)(F)F)C(F)(F)F)c1cccc([N+](=O)[O-])c1
inactive: dose: 12.5 mg/kg/injection, schedule: Q01DX001 (ip), vehicle: saline with Tween-80 113 % of control | dose: 25.0 mg/kg/injection, schedule: Q01DX001 (ip), vehicle: saline with Tween-80 109 % of control | dose: 50.0 mg/kg/injection, schedule: Q01DX001 (ip), vehicle: saline with Tween-80 109 % of control

O=[N+]([O-])c1ccc(/C=N/c2ncc(Br)s2)o1
inactive: [5] 120 % of control | dose: 25.0 mg/kg/injection, schedule: Q04DX003 (ip), vehicle: saline with Tween-80 104 % of control and 118 % of control | [9] 90 % of control | [10] 118 % of control | [11] 90 % of control

CC(C)(O)c1ccccc1S(=O)c1ccc(Cl)cc1 (stereo unspecified)
inactive: [7] 100 % of control | [9] 101 % of control | [8] 99 % of control
